Laboratory results reported in patent US5540931A, “Methods for inducing site-specific immunosuppression and compositions of site specific immunosuppressants” (Hewitt; Charles W., priority 1994, dated 1996).

What was measured:
[1] = test system: mixed lymphocyte responses; experiment: In vitro site-specific mixed lymphocyte response; assay type: cell-based; details: FIGS. 14 A and B
[2] = test system: contact hypersensitivity reactions of skin tissue; details: topical
Excerpt: Rapamycin (0.01%), cyclosporine (0.1%), and rapamycin-cyclosporine (0.01%/0.1%) combined formulations, were applied in a trinary drug delivery system consisting of 1,2 propanediol, diethylene glycol monoethyl ether, and a glyceryl caprylate/caprate polyethylene glycol complex.
To further elaborate, rapamycin (0.001%), cyclosporine (0.01%), and rapamycin-cyclosporine (0.001%/0.01%) combined formulations, were applied in a trinary drug delivery system consisting of 1,2 propanediol, diethylene glycol monoethyl ether, and a glyceryl caprylate/caprate polyethylene glycol complex (6:3:1).

## CO[C@H]1C[C@@H]2CC[C@@H](C)[C@@](O)(O2)C(=O)C(=O)N2CCCC[C@H]2C(=O)O[C@H]([C@H](C)C[C@@H]2CC[C@@H](O)[C@H](OC)C2)CC(=O)[C@H](C)/C=C(\C)[C@@H](O)[C@@H](OC)C(=O)[C@H](C)C[C@H](C)/C=C/C=C/C=C/1C [Rapamycin, rapamycin]
[1]; agent alone
  site-specific immune suppression of primary or activated cellular immune responses: provided potent site-specific immune suppression
[1]; local application
  efficacy by inflammatory immune phase (early versus late): surprisingly efficacious with local application during both late and early inflammatory immune phases
[2]; contact dermatitis model
  efficacy by local inflammatory immune phase (early versus late): particularly efficacious during the late local inflammatory-immune phase
[2]; rapamycin 0.001%, cyclosporine 0.01%, combination 0.001%/0.01%, trinary vehicle (6:3:1)
  site-specific immune suppression in contact dermatitis at low concentrations: provided surprising site-specific immune suppression
[2]; rapamycin 0.01%, cyclosporine 0.1%, combination 0.01%/0.1%, 1,2 propanediol/Transcutol/Labrasol vehicle, FIG. 13B
  local inflammatory/immune response in contact hypersensitivity: inhibited local inflammatory/immune responses
